Assay results: patent US4591504A, “Human leucocyte pepsin-like enzyme as a therapeutic agent for treating allergic disorders and immune complex diseases” (Mochida Pharmaceutical Co., Ltd., priority 1982, dated 1986)

Columns and labels:
leukemia cells P388 = assay: Effect on leukemia cells P388 bearing mice; format: in vivo, mouse (BDF1); conditions: 0.5 mg/kg; control 100 ± 5
Experimental: 10^5 of leukemia cells P388 were transplanted intraperitoneally to a group of 5 BDF1 male mice. The human leucocyte pepsin-like enzyme was injected intravenously into the mice twice a day beginning on the next day until the animals died. The average life span was calculated and expressed as a percentage of control. [formula]

[1] = tested on: mouse leukemia cells L1210; assay: Effect on the growth of cultured mouse leukemia cells L1210; format: cell-based; conditions: 100 μg/ml, 48 hours, read-out: Growth inhibition rate
Experimental: (§1) Human breast cancer cells MX-1 and mouse leukemia cells L1210 were respectively suspended at a cell concentration of 10^5 /ml in Eagle's medium containing 10% calf serum and test substances. The cells were cultured at 37° C. under 5% CO2 for 48 hours. Then the number of viable cells was counted after staining with Tripan Blue. [formula]

[2] = tested on: human breast cancer cells MX-1; assay: Effect on the growth of cultured human breast cancer cells MX-1; format: cell-based; conditions: 100 μg/ml, 48 hours, read-out: Growth inhibition rate
Experimental: as §1

## CO[C@@]12[C@H](COC(N)=O)C3=C(C(=O)C(C)=C(N)C3=O)N1C[C@@H]1N[C@@H]12 [Mitomycin C]
Leukemia cells P388
  Average life span (percentage of control): 135 ± 16%
[1]
  inhibition at 100 µg/mL: 61%
[2]
  inhibition at 100 µg/mL: 48%
